Measured values from US10391095B2, “DNA-PK inhibitors” (Vertex Pharmaceuticals Incorporated, priority 2012, dated 2019).

Molecular target: DNA-PK (Homo sapiens, UniProt P78527)
Experiment: DNA-PK inhibition assay (radiometric, 33P-ATP)
Type: biochemical
Details: 100 μM ATP, competitive tight-binding fit
Summary of the method: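 Approx. 6 nM DNA-PK with 10 µg/mL sheared dsDNA, 0.8 mg/mL peptide substrate and 100 µM 33P-ATP in HEPES pH 7.5, 10 mM MgCl2; 45 min, phosphoric acid quench. Phosphopeptide captured on filter plates and counted by scintillation; Ki from a competitive tight-binding model fit.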

Ki, < 30 nM:
CN1CCN(c2ccc(-c3cc(NCCc4ccccc4OC4CC4)ncn3)cn2)CC1=O [Compound 142]
COc1ccccc1[C@H](C)CNc1cc(-c2ccc3ncccc3c2)ncn1 [Compound 80]
CNC(=O)c1ccnc2c([C@H](C)CNc3cc(-c4ccc(N5CCN6C(=O)OCC6C5)nc4)ncn3)cccc12 (single isomer, unassigned) [Compound 731]
CNC(=O)c1ccnc2c([C@H](C)CNc3cc(N4CCn5c(C6CCN(C)CC6)cnc5C4)ncn3)cccc12 [Compound 826]
CNC(=O)c1ccc([C@H](C)CNc2cc(-c3ccc(C(=O)NC4CC4)cc3)ncn2)c(OC)c1 [Compound 318]
CNC(=O)c1ccnc2c([C@H](C)CNc3cc(-c4cnc5c(cnn5CCO)c4)ncn3)cccc12 [Compound 580]
CN1CCN(c2ccc(-c3cc(NCCc4cccc5c4OCC5)ncn3)cn2)CC1 [Compound 30]
Cc1ncc(-c2cc(NC[C@@H](C)c3cccc4c(=O)n(C)cnc34)ncn2)cn1 [Compound 697]
CC(CNc1cc(-c2cnc3c(cnn3CCO)c2)ncn1)c1cncc2c1OCC2 (stereo not drawn) [Compound 419]
COc1nc(N)ncc1[C@H](C)CNc1cc(-c2ccc(C)nc2)ncn1 [Compound 475]
Cc1ccc(-c2cc(NCCc3ccccc3OC3CC3)ncn2)cn1 [Compound 86]
CNC(=O)c1ccnc2c([C@H](C)CNc3cc(-c4cnc(C(C)(C)C)nc4)ncn3)cccc12 [Compound 791]
CNC(=O)c1ccnc2c([C@H](C)CNc3cc(-c4cnc(C)c(F)c4)ncn3)ccc(F)c12 [Compound 974]
CNC(=O)c1ccnc2c([C@H](C)CNc3cc(-c4ccc(CC(C)C)nc4)ncn3)cccc12 [Compound 816]
COc1ccccc1CCNc1cc(-c2cnc3[nH]ccc3c2)ncn1 [Compound 8]
CNC(=O)c1ccc(C(C)CNc2cc(-c3cnc4c(ccn4C)c3)ncn2)c(OC)c1 (stereo not drawn) [Compound 189]
[2H]c1nc(C)nc([2H])c1-c1cc(NC[C@@H](C)c2ccc(F)c3c(C(=O)NC)ccnc23)ncn1 [Compound 861]
CNC(=O)c1ccnc2c([C@H](C)CNc3cc(-c4cnc5c(c4)COC5)ncn3)ccc(F)c12 [Compound 967]
CNC(=O)c1ccnc2c([C@H](C)CNc3cc(-c4ccc(C(=O)NC5CC5)cc4)ncn3)cccc12 [Compound 752]
CNC(=O)c1ccc([C@H](C)CNc2cc(-c3ccc4c(c3)CCN4C)ncn2)c(OC)c1 [Compound 342]
CNC(=O)c1ccc(C(C)CNc2cc(-c3ccc(OC4CN(C(C)=O)C4)nc3)ncn2)c(OC)c1 (stereo not drawn) [Compound 327]
CNC(=O)c1ccc(C(C)CNc2cc(-c3cnc4[nH]ncc4c3)ncn2)c(OC)c1 (stereo not drawn) [Compound 167]
CNC(=O)c1ccc(-c2cc(NC[C@@H](C)c3cccc4c(C(=O)NC)ccnc34)ncn2)s1 [Compound 776]
CNC(=O)c1ccnc2c([C@H](C)CNc3cc(-c4ccc([S+](C)[O-])cc4)ncn3)cccc12 (stereo partly drawn) [Compound 677]
CC(CNc1cc(-c2ccc(C(=O)NCCC#N)cc2)ncn1)c1ccnc2cccnc12 (stereo not drawn) [Compound 431]
CNC(=O)c1ccnc2c([C@H](C)CNc3cc(-c4ccc(C)nc4)ncn3)cccc12 [Compound 476]
C[C@H](CNc1cc(-c2cc(F)c3ncccc3c2)ncn1)c1ccnc2c1OCC2 [Compound 597]
[2H]c1nc(NC[C@@H](C)c2cccc3c(C(=O)NC)ccnc23)cc(-c2ccc(C)nc2)n1 [Compound 604]
Cc1cc([C@H](C)CNc2cc(-c3cnc4c(cnn4CCO)c3)ncn2)c2c(n1)CCO2 [Compound 505]
CNC(=O)c1ccnc2c([C@H](C)CNc3cc(-c4ccc(C(=O)O)nc4)ncn3)cccc12 [Compound 673]
CNC(=O)c1c(C#N)cnc2c([C@H](C)CNc3cc(-c4ccc(C)nc4)ncn3)cccc12 [Compound 766]
CNC(=O)c1ccnc2c([C@H](C)CNc3cc(-c4ccnc(OC)c4)ncn3)cccc12 [Compound 869]
CNC(=O)c1ccnc2c([C@H](C)CNc3cc(-c4cncc(S(C)(=O)=O)c4)ncn3)cccc12 [Compound 877]
CNC(=O)c1ccc([C@H](C)CNc2cc(-c3ccc(C(=O)N4CCN(C)CC4)cc3)ncn2)c(OC)c1 [Compound 309]
CNC(=O)c1ccnc2c([C@H](C)CNc3cc(-c4ccc(N[C@@H]5COC[C@H]5O)nc4)ncn3)cccc12 [Compound 726]
CNC(=O)c1ccnc2c([C@H](C)CNc3cc(-c4ccc(NCC5CC5)nc4)ncn3)cccc12 [Compound 644]
CNC(=O)c1ccnc2c([C@H](C)CNc3cc(-c4ccc5c(c4)CCNC5)ncn3)cccc12 [Compound 802]
CC(CNc1cc(-c2cnc3c(cnn3C3COC3)c2)ncn1)c1cncc2c1OCC2 (stereo not drawn) [Compound 420]
CNC(=O)c1ccnc2c([C@H](C)CNc3cc(-c4ccnc(NC5CC5)c4)ncn3)cccc12 [Compound 894]
CNC(=O)c1c(F)cnc2c([C@H](C)CNc3cc(-c4csc(OC)n4)ncn3)cccc12 [Compound 787]
CNC(=O)c1ccnc2c([C@H](C)CNc3cc(-c4cnc(C#N)c(OC)c4)ncn3)cccc12 [Compound 924]
COc1ncc(-c2cc(NC[C@@H](C)c3ccnc4c3OCC4)ncn2)cc1N [Compound 589]
CNC(=O)c1ccnc2c([C@H](C)CNc3cc(-c4cnc5c(cnn5C(C)(C)C)c4)ncn3)cccc12 [Compound 619]
Cc1ccc(-c2cc(NCC(C)c3cccc4c(C)ncnc34)ncn2)cn1 (stereo not drawn) [Compound 838]
COc1ccccc1[C@H](C)CNc1cc(-c2cnc3c(cnn3CCO)c2)ncn1 [Compound 127]
CCOc1ccc(-c2cc(NCC(C)c3ccc(C(=O)NC)cc3OC)ncn2)cn1 (stereo not drawn) [Compound 322]
CC(CNc1cc(-c2cnc3[nH]ncc3c2)ncn1)c1ccccc1OC1COC1 (stereo not drawn) [Compound 214]
CNC(=O)c1c(F)cnc2c([C@H](C)CNc3cc(-c4ccc(C#N)nc4)ncn3)cccc12 [Compound 901]
Cc1ccc(-c2cc(NC[C@@H](C)c3cncc4c3OCCN4)ncn2)cn1 [Compound 837]
CNC(=O)c1ccnc2c([C@H](C)CNc3cc(-c4ccc(C)nc4)ncn3)cc(F)c(F)c12 [Compound 638]
CNC(=O)c1ccnc2c([C@H](C)CNc3cc(-c4cnc(C5CCC5)nc4)ncn3)cccc12 [Compound 846]
C[C@H](CNc1cc(-c2cnc3c(cnn3CCO)c2)ncn1)c1ccnc2cccnc12 [Compound 472]
C[C@H](CNc1cc(-c2cc(C(F)(F)F)c3ncccc3c2)ncn1)c1ccnc2c1OCCO2 [Compound 557]
CNC(=O)c1c(F)cnc2c([C@H](C)CNc3cc(-c4cn[nH]c4)ncn3)cccc12 [Compound 785]
Cc1ccc(-c2cc(NCC(C)c3ccccc3OC3CCC3)ncn2)cn1 (stereo not drawn) [Compound 240]
CNC(=O)c1ccnc2c([C@H](C)CNc3cc(-c4cnc(C5CCC5)nc4)ncn3)ccc(F)c12 [Compound 851]
CNC(=O)c1ccnc2c([C@H](C)CNc3cc(-c4cnc(N5CCOCC5)c(C#N)c4)ncn3)cccc12 [Compound 946]
[2H]c1nc(C)nc([2H])c1-c1cc(NC[C@@H](C)c2cccc3c(C(=O)NC)ccnc23)ncn1 [Compound 844, (S)—N-methyl-8-(1-((2′-methyl-4′,6′-dideutero-[4,5′-bipyrimidin]-6-yl)amino)propan-2-yl)quinoline-4-carboxamide]
CNC(=O)c1ccc(C(C)CNc2cc(-c3cnc4c(cnn4C4CN(C(C)=O)C4)c3)ncn2)c(OC)c1 (stereo not drawn) [Compound 248]
CNC(=O)c1ncnc2c([C@H](C)CNc3cc(-c4ccc(C)nc4)ncn3)cccc12 [Compound 971, (S)—N-methyl-8-(1-((6-(6-methylpyridin-3-yl)pyrimidin-4-yl)amino)propan-2-yl)quinazoline-4-carboxamide]
CNC(=O)c1ccnc2c([C@H](C)CNc3cc(-c4ccc(N5CCOC(C)C5)nc4)ncn3)cccc12 (single isomer, unassigned) [Compound 713]
CNC(=O)c1ccc([C@H](C)CNc2cc(-c3ccc(C(C)=O)cc3)ncn2)c(OC)c1 [Compound 319]
C=C(C)CNc1ccc(-c2cc(NC[C@@H](C)c3ccc(C(=O)NC)cc3OC)ncn2)cn1 [Compound 389]
CNC(=O)c1ccnc2c([C@H](C)CNc3cc(-c4ccnc(C5CC5)c4)ncn3)cccc12 [Compound 911]
COc1ccccc1[C@H](C)CNc1cc(-c2ccc(NC(C)CO)nc2)ncn1 (single isomer, unassigned) [Compound 126]
CNC(=O)c1ccnc2c([C@H](C)CNc3cc(-c4ccc(N5C[C@@H]6CCN(C)[C@@H]6C5)nc4)ncn3)cccc12 [Compound 720]
CNC(=O)c1ccnc2c([C@H](C)CNc3cc(-c4ccc(C(C)O)nc4)ncn3)cccc12 (stereo partly drawn) [Compound 730]
CNC(=O)c1ccc(C(C)CNc2cc(-c3ccc(C)nc3)ncn2)c(OC)c1 (stereo not drawn) [Compound 123]
Cc1ccc(-c2cc(NCC(C)c3ccccc3OC3COC3)ncn2)cn1 (stereo not drawn) [Compound 101]
CNC(=O)c1ccnc2c([C@H](C)CNc3cc(-c4ccc(C(=O)NCCCN(C)C)cc4)ncn3)cccc12 [Compound 751]
CNCCNc1ccc(-c2cc(NC[C@@H](C)c3cccc4c(C(=O)NC)ccnc34)ncn2)cn1 [Compound 584]
CC(CNc1cc(-c2cnc3c(cnn3CCO)c2)ncn1)c1ccnc2ccoc12 (stereo not drawn) [Compound 429]
